Experiment [1] has as its target T1, B1R receptor of the rat (Rattus norvegicus, UniProt P97583).
T1 construct: host or cells: CHO K1 cells (Chinese hamster ovary), stably transfected
T1 sequence (P97583 1-337): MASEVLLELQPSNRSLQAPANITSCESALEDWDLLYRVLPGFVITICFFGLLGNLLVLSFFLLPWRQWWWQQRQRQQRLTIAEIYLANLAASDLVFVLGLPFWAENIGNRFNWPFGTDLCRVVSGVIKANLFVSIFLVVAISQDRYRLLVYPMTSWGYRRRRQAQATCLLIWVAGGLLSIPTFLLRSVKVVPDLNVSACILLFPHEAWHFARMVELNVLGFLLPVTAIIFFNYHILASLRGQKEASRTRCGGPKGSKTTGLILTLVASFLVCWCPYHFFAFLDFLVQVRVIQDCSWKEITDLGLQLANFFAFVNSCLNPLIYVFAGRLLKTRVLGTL
The experiment is described as follows: Functional study on the bradykinin receptor 1 (B1R), FLIPR Ca2+ assay, rB1R cells. It is filed as cell-based. Conditions: agonist Des-Arg9-bradykinin 100 nM, % inhibition compared with the maximum achievable inhibition; for inhibition at 10 µM: CHO-K1, test substance 10 μM, read-out: B1R Antagonism, rat [10 μM] % Inhibition; for B1R Antagonism, rat [10 μM] % Inhibition: test substance 10 μM, rB1R CHO K1 cells. The gist of the method: (§1)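 Readout: peak Fluo-4 Ca2+ fluorescence, FLIPR. Stable CHO K1 hB1R or rB1R cells; cpd 10 μM, 10 min preincubation, then agonist (hB1R: Lys-Des-Arg9-BK 0.5 nM; rB1R: Des-Arg9-BK 100 nM). Value = % inhibition relative to maximal achievable inhibition.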

The target in experiment [2] is T2, human B1R receptor (Homo sapiens, UniProt P46663).
T2 construct: host or cells: CHO K1 cells (Chinese hamster ovary), stably transfected
T2 sequence (P46663 1-353): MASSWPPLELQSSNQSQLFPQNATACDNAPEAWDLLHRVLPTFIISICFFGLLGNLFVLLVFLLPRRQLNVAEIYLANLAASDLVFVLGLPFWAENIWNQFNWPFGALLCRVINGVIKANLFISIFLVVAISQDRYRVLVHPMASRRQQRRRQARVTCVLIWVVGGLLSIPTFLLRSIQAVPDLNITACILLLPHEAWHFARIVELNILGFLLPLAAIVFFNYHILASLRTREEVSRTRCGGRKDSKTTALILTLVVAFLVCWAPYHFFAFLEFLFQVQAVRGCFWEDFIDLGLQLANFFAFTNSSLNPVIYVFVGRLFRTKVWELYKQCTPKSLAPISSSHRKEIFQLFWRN
The experiment is described as follows: Functional study on the bradykinin receptor 1 (B1R), FLIPR Ca2+ assay, hB1R cells. It is filed as cell-based. Conditions: agonist Lys-Des-Arg9-bradykinin 0.5 nM, % inhibition compared with the maximum achievable inhibition; for inhibition at 10 µM: CHO-K1, test substance 10 μM, read-out: B1R Antagonism, human [10 μM] % Inhibition; for B1R Antagonism, human [10 μM] % Inhibition: test substance 10 μM, hB1R CHO K1 cells. The gist of the method: as §1

By inhibition is commonly meant the drop in the measured response relative to a control, in per cent.

For `Cc1ccc(C)n1CCN1CCN(C(=O)COCC2CCCN2S(=O)(=O)c2c(Cl)cccc2Cl)CC1` (centres unmarked) [Example 287, 2-((1-(2,6-dichlorophenylsulfonyl)pyrrolidin-2-yl)methoxy)-1-(4-(2-(2,5-dimethyl-1H-pyrrol-1-yl)ethyl)piperazin-1-yl)ethanone], the inhibition at 10 µM amounted to 89.2% in experiment [1] and 101% in experiment [2].
Turning to `COc1cccc(N2CCN(C(=O)COCC3CCCCN3S(=O)(=O)c3c(C)cc(OC)cc3C)CC2)c1` (centres unmarked) [Example 288, 2-((1-(4-methoxy-2,6-dimethylphenylsulfonyl)piperidin-2-yl)methoxy)-1-(4-(3-methoxyphenyl)piperazin-1-yl)ethanone], the results for the inhibition at 10 µM in experiment [1] and in experiment [2] were 93.3% and 102%, respectively.
Regarding `COc1cc(C)c(S(=O)(=O)N2CCCCC2COCC(=O)N2CCN(c3ccc(F)cc3)CC2)c(C)c1` (centres unmarked) [Example 289, 1-(4-(4-fluorophenyl)piperazin-1-yl)-2-((1-(4-methoxy-2,6-dimethylphenylsulfonyl)piperidin-2-yl)methoxy)ethanone], the inhibition at 10 µM stood at 95.5% in experiment [1] and 103% in experiment [2].
As to `COc1ccc(N2CCN(C(=O)COCC3CCCCN3S(=O)(=O)c3c(C)cc(OC)cc3C)CC2)cc1` (centres unmarked) [Example 290, 2-((1-(4-methoxy-2,6-dimethylphenylsulfonyl)piperidin-2-yl)methoxy)-1-(4-(4-methoxyphenyl)piperazin-1-yl)ethanone], the inhibition at 10 µM in experiment [1] worked out at 92.9%; in experiment [2] it was 104%.
The matching figures for `COc1cc(C)c(S(=O)(=O)N2CCCCC2COCC(=O)N2CCN(C(C)C)CC2)c(C)c1` (centres unmarked) [Example 291, 1-(4-isopropylpiperazin-1-yl)-2-((1-(4-methoxy-2,6-dimethylphenylsulfonyl)piperidin-2-yl)methoxy)ethanone]: 93% and 104%.
In the case of `Cc1cc(C)c(S(=O)(=O)N2Cc3ccccc3CC2COCC(=O)N2CCC(N3CCN(C)CC3)CC2)c(C)c1` (centres unmarked) [Example 292, 2-((2-(mesitylsulfonyl)-1,2,3,4-tetrahydroisoquinolin-3-yl)methoxy)-1-(4-(4-methylpiperazin-1-yl)piperidin-1-yl)ethanone], the inhibition at 10 µM stood at 99.2% in experiment [1] and 106% in experiment [2].
In the same order, the values of `O=C(COCC1CCCCN1S(=O)(=O)c1ccc(Cl)c(Cl)c1)Nc1cccc(CN2CCCC2)c1` (centres unmarked) [Example 293, 2-((1-(3,4-dichlorophenylsulfonyl)piperidin-2-yl)methoxy)-N-(3-(pyrrolidin-1-ylmethyl)phenyl)acetamide] are -6.96% and 90.5%.
Regarding `CCN1CCN(C(=O)COCC2CCCN2S(=O)(=O)c2c(Cl)cc(Cl)cc2Cl)CC1` (centres unmarked) [Example 295, 1-(4-ethylpiperazin-1-yl)-2-((1-(2,4,6-trichlorophenylsulfonyl)pyrrolidin-2-yl)methoxy)ethanone], the values for the inhibition at 10 µM in experiment [1] and in experiment [2] were 103% and 96.7%, respectively.
Regarding `O=C(COCC1CCCN1S(=O)(=O)c1c(Cl)cc(Cl)cc1Cl)N1CCC(N2CCCC2)CC1` (centres unmarked) [Example 296, 1-(4-(pyrrolidin-1-yl)piperidin-1-yl)-2-((1-(2,4,6-trichlorophenylsulfonyl)pyrrolidin-2-yl)methoxy)ethanone], the inhibition at 10 µM in experiment [1] was found to be 99.3%; in experiment [2] it was 106%.
As to `O=C(COCC1CCCN1S(=O)(=O)c1c(Cl)cc(Cl)cc1Cl)N1CCC(N2CCOCC2)CC1` (centres unmarked) [Example 297, 1-(4-morpholinopiperidin-1-yl)-2-((1-(2,4,6-trichlorophenylsulfonyl)pyrrolidin-2-yl)methoxy)ethanone], the inhibition at 10 µM in experiment [1] was 103%; in experiment [2] it was 106%.
As to `O=C(COCC1CCCN1S(=O)(=O)c1c(Cl)cc(Cl)cc1Cl)N1CCC(N2CCCCC2)CC1` (centres unmarked) [Example 298, 1-(1,4′-bipiperidin-1-yl)-2-((1-(2,4,6-trichlorophenylsulfonyl)pyrrolidin-2-yl)methoxy)ethanone], in experiment [1], the “B1R Antagonism, rat [10 μM] % Inhibition” value came to 103.58%. The “B1R Antagonism, human [10 μM] % Inhibition” value in experiment [2] was 105.09%.
On to `COc1cc(C)c(S(=O)(=O)N2CCCC2COCC(=O)NCc2ccc(CN3CCCC3)cc2)c(C)c1` (centres unmarked) [Example 299, 2-((1-(4-methoxy-2,6-dimethylphenylsulfonyl)pyrrolidin-2-yl)methoxy)-N-(4-(pyrrolidin-1-ylmethyl)benzyl)acetamide], for which the inhibition at 10 µM in experiment [1] amounted to 103%; in experiment [2], 106%.
As to `COc1cc(C)c(S(=O)(=O)N2CCCC2COCC(=O)NCC2CCCN(Cc3ccccc3)C2)c(C)c1` (centres unmarked) [Example 300, N-((1-benzylpiperidin-3-yl)methyl)-2-((1-(4-methoxy-2,6-dimethylphenylsulfonyl)pyrrolidin-2-yl)methoxy)acetamide], the inhibition at 10 µM in experiment [1] was found to be 103%; in experiment [2], 106%.
Turning to `COc1cc(C)c(S(=O)(=O)N2CCCC2COCC(=O)Nc2ccc(N3CCN(C)CC3)cc2)c(C)c1` (centres unmarked) [Example 301, 2-((1-(4-methoxy-2,6-dimethylphenylsulfonyl)pyrrolidin-2-yl)methoxy)-N-(4-(4-methylpiperazin-1-yl)phenyl)acetamide], the inhibition at 10 µM in experiment [1] is 101%; in experiment [2], 106%.
On to `COc1cc(C)c(S(=O)(=O)N2CCCC2COCC(=O)NCc2ccc(N3CCN(C)CC3)cc2)c(C)c1` (centres unmarked) [Example 302, 2-((1-(4-methoxy-2,6-dimethylphenylsulfonyl)pyrrolidin-2-yl)methoxy)-N-(4-(4-methylpiperazin-1-yl)benzyl)acetamide], for which the “B1R Antagonism, rat [10 μM] % Inhibition” value in experiment [1] worked out at 102.41%. The “B1R Antagonism, human [10 μM] % Inhibition” value in experiment [2] was found to be 100.69%.
Consider `COc1cc(C)c(S(=O)(=O)N2CCCC2COCC(=O)N(C)[C@H]2CCN(Cc3ccccc3)C2)c(C)c1` (stereo partly drawn) [Example 303, N—((S)-1-benzylpyrrolidin-3-yl)-2-((1-(4-methoxy-2,6-dimethylphenylsulfonyl)pyrrolidin-2-yl)methoxy)-N-methylacetamide], for which the values for the inhibition at 10 µM in experiment [1] and in experiment [2] were 100% and 106%, respectively.
The matching figures for `COc1cc(C)c(S(=O)(=O)N2CCCC2COCC(=O)N(C)C(CN2CCOCC2)c2ccccc2)c(C)c1` (centres unmarked) [Example 304, 2-((1-(4-methoxy-2,6-dimethylphenylsulfonyl)pyrrolidin-2-yl)methoxy)-N-methyl-N-(2-morpholino-1-phenylethyl)acetamide]: 102% and 71.1%.
Regarding `COc1cc(C)c(S(=O)(=O)N2CCCC2COCC(=O)N2CCN(c3ccccn3)CC2)c(C)c1` (centres unmarked) [Example 305, 2-((1-(4-methoxy-2,6-dimethylphenylsulfonyl)pyrrolidin-2-yl)methoxy)-1-(4-(pyridin-2-yl)piperazin-1-yl)ethanone], the inhibition at 10 µM is 95.5% in experiment [1] and 76.4% in experiment [2].
As to `COc1cccc(N2CCN(C(=O)COCC3CCCN3S(=O)(=O)c3c(C)cc(OC)cc3C)CC2)c1` (centres unmarked) [Example 306, 2-((1-(4-methoxy-2,6-dimethylphenylsulfonyl)pyrrolidin-2-yl)methoxy)-1-(4-(3-methoxyphenyl)piperazin-1-yl)ethanone], the inhibition at 10 µM in experiment [1] turned out to be 99.2%; in experiment [2] it was 104%.
`COc1cc(C)c(S(=O)(=O)N2CCCC2COCC(=O)N2CCN(c3ccc(F)cc3)CC2)c(C)c1` (centres unmarked) [Example 307, 1-(4-(4-fluorophenyl)piperazin-1-yl)-2-((1-(4-methoxy-2,6-dimethylphenylsulfonyl)pyrrolidin-2-yl)methoxy)ethanone]: the inhibition at 10 µM in experiment [1] was 98.4%; in experiment [2] it was 105%.
For the compound `COc1ccc(N2CCN(C(=O)COCC3CCCN3S(=O)(=O)c3c(C)cc(OC)cc3C)CC2)cc1` (centres unmarked) [Example 308, 2-((1-(4-methoxy-2,6-dimethylphenylsulfonyl)pyrrolidin-2-yl)methoxy)-1-(4-(4-methoxyphenyl)piperazin-1-yl)ethanone], the inhibition at 10 µM is 101% in experiment [1] and 105% in experiment [2].
Take `COc1cc(C)c(S(=O)(=O)N2CCCC2COCC(=O)N2CCN(c3ncccn3)CC2)c(C)c1` (centres unmarked) [Example 309, 2-((1-(4-methoxy-2,6-dimethylphenylsulfonyl)pyrrolidin-2-yl)methoxy)-1-(4-(pyrimidin-2-yl)piperazin-1-yl)ethanone]: the figures for the inhibition at 10 µM in experiment [1] and in experiment [2] were 101% and 52%, respectively.
